The results in this text go back to ChEMBL document CHEMBL1201862, “PubChem BioAssay data set” (2004).

Test systems include CAKI-1; EKVX; HCT-116; HCT-15; MOLT-4; Malme-3M; NCI-H226; NCI-H23; NCI-H460; OVCAR-4; OVCAR-8; SF-268; SF-295; SK-MEL-28; SK-OV-3; U-251; UACC-62; UO-31; ACHN; M14.
What all share (assay): inhibition of tumour cell growth, NCI panel, 48 h

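Dose response: 5 concentrations. Exposure: 48 h. Format: 96-well plates. Endpoint: linear interpolation; highest concentration if not reached. GI50: concentration for 50% inhibition of growth.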 Calls of active or inactive are those of the source. Rule as the data show it: active = GI50 up to about 1.1 µM and inactive = higher.

Regarding `Cc1[nH]c(=O)[nH]c(=O)c1/C=C/C(=O)NC(CO)C[S+]([O-])C[S+](C)[O-]` (stereo unspecified), the GI50 in the experiment with CAKI-1 was 4.93 µM (inactive); in the experiment on EKVX, 16.4 µM (inactive); in the experiment on HCT-116, 19.3 µM (inactive); in the experiment with HCT-15, 44.3 µM; in the experiment on MOLT-4, 18.7 µM (inactive); with Malme-3M, 12.2 µM (inactive). Besides, the GI50 is 17.5 µM (inactive) in the experiment on NCI-H226; 10.8 µM (inactive) in the experiment with NCI-H23; 16.6 µM (inactive) in the experiment with NCI-H460; 2.17 µM (inactive) in the experiment with OVCAR-4; 28.4 µM (inactive) in the experiment on OVCAR-8; 4.17 µM (inactive) in the experiment on SF-268. Besides, the GI50 is 15.6 µM (inactive) in the experiment on SF-295; 17.8 µM (inactive) in the experiment on SK-MEL-28; 20.5 µM (inactive) in the experiment with SK-OV-3; 3.8 µM (inactive) in the experiment on U-251; 12.5 µM (inactive) in the experiment with UACC-62; 23.7 µM (inactive) in the experiment on UO-31.
On to `CN(C)C(=S)/N=c1\ss/c(=N\S(=O)(=O)c2ccccc2)n1-c1ccccc1`, for which the GI50 in the experiment on ACHN was 24.2 µM (inactive); in the experiment with CAKI-1, > 100 µM (inactive); in the experiment with EKVX, 59.6 µM (inactive); in the experiment on HCT-15, 7.28 µM; in the experiment with M14 it was 20.6 µM (inactive); in the experiment with MOLT-4, 5.35 µM (inactive). Also, the GI50 in the experiment with Malme-3M was 30.1 µM (inactive); with NCI-H226, 0.458 µM (active); in the experiment with NCI-H23, 16.1 µM (inactive); in the experiment on OVCAR-4 it was 0.185 µM (active); in the experiment with OVCAR-8 it was 23.7 µM (inactive); in the experiment with SF-268 it was 38.9 µM (inactive). Besides, the GI50 in the experiment on SF-295 was 20.3 µM (inactive); in the experiment with SK-MEL-28 it was 63.7 µM (inactive); with SK-OV-3 it was 89.7 µM (inactive); in the experiment on U-251 it was 27 µM (inactive); in the experiment with UACC-62 it was 0.297 µM (active); in the experiment with UO-31, 22 µM (inactive).
In the case of `COc1c(Cl)ccc(Cl)c1C(=O)NNC(=O)c1c(Cl)c(Cl)c(Cl)c(Cl)c1-c1nc2cc(C(=O)c3ccccc3)ccc2[nH]1`, the GI50 in the experiment on ACHN was 37.5 µM (inactive); with CAKI-1 it was 95.3 µM (inactive); in the experiment on EKVX it was 36.8 µM (inactive); with HCT-116, 66.7 µM (inactive); with HCT-15, 35 µM; with M14 it was 52.6 µM (inactive). In addition, the GI50 with MOLT-4 is 20.6 µM (inactive); in the experiment on Malme-3M, 54.3 µM (inactive); with NCI-H226, 45.6 µM (inactive); with NCI-H23, 64.1 µM (inactive); in the experiment on OVCAR-4 it was 44.9 µM (inactive); with OVCAR-8 it was 72.9 µM (inactive). Further, the GI50 with SF-268 was 34.3 µM (inactive); in the experiment on SF-295 it was 34.9 µM (inactive); with SK-MEL-28, 84.7 µM (inactive); with SK-OV-3, > 100 µM (inactive); with U-251, 53.2 µM (inactive); in the experiment with UO-31 it was 60.4 µM (inactive).
As for `CCn1cc(C(c2ccc(Cl)cc2)n2ccnc2)c2cc(Br)ccc21` (stereo unspecified), the GI50 is 12.8 µM (inactive) with ACHN; 13.7 µM (inactive) in the experiment on CAKI-1; > 100 µM (inactive) in the experiment on EKVX; 16.1 µM (inactive) in the experiment on HCT-116; 12.2 µM with HCT-15; 13.3 µM (inactive) in the experiment with M14. The GI50 in the experiment with MOLT-4 was 1.85 µM (inactive); with Malme-3M, 17.7 µM (inactive); in the experiment with NCI-H226, 22.1 µM (inactive); with NCI-H23 it was 14.5 µM (inactive); with OVCAR-4, 9.64 µM (inactive); with OVCAR-8, 10.8 µM (inactive). In addition, the GI50 in the experiment with SF-268 is 11.2 µM (inactive); with SF-295, 10.8 µM (inactive); with SK-OV-3 it was 17.7 µM (inactive); in the experiment with U-251 it was 14.7 µM (inactive); with UACC-62, 10.9 µM (inactive); in the experiment with UO-31, 6.9 µM (inactive).
For the molecule `CC(=O)OCC1=C(COC(C)=O)C(=O)c2c(O)ccc(O)c2C1=O`, the GI50 is 10.2 µM (inactive) with ACHN; 5.66 µM (inactive) in the experiment with CAKI-1; 15.1 µM (inactive) in the experiment with EKVX; 12.1 µM (inactive) in the experiment with HCT-116; 10.4 µM with HCT-15; 5.3 µM (inactive) with M14. For the same molecule, the GI50 was 1.37 µM (inactive) in the experiment with MOLT-4; 4.28 µM (inactive) with Malme-3M; 15.8 µM (inactive) with NCI-H226; 12.1 µM (inactive) in the experiment with NCI-H23; 10.8 µM (inactive) with OVCAR-4; 10.2 µM (inactive) with OVCAR-8. The GI50 in the experiment on SF-268 is 13.8 µM (inactive); in the experiment on SF-295, 13.4 µM (inactive); in the experiment on SK-MEL-28, 4.9 µM (inactive); in the experiment with SK-OV-3, 18.8 µM (inactive); in the experiment on U-251 it was 13.1 µM (inactive); in the experiment with UACC-62, 5.56 µM (inactive). The GI50 in the experiment on UO-31 was 15.4 µM (inactive).
Regarding `CC(=O)OCC1OC(n2cc(F)c(=O)[nH]c2=O)C(N)C(OC(C)=O)C1OC(C)=O` (stereo unspecified), the GI50 in the experiment with CAKI-1 is > 100 µM (inactive); in the experiment on EKVX, > 100 µM (inactive); in the experiment on HCT-116 it was > 100 µM (inactive); in the experiment with HCT-15, greater than 100 µM; in the experiment on MOLT-4, > 100 µM (inactive); in the experiment with Malme-3M it was > 100 µM (inactive). The GI50 in the experiment on NCI-H226, in the experiment with NCI-H23, in the experiment on NCI-H460, in the experiment on OVCAR-4, in the experiment on OVCAR-8 and with SF-268 was > 100 µM (inactive) in each case. Also, the GI50 in the experiment on SF-295, with SK-OV-3, in the experiment with U-251, in the experiment with UACC-62 and in the experiment with UO-31 was > 100 µM (inactive) each time.
Turning to `CCC(=O)NC(OCC1(CC)COC1)(C(F)(F)F)C(F)(F)F`, the GI50 with ACHN was > 100 µM (inactive); in the experiment with EKVX it was > 100 µM (inactive); with HCT-116, > 100 µM (inactive); in the experiment on HCT-15 it was greater than 100 µM; in the experiment with M14, > 100 µM (inactive); in the experiment with MOLT-4, > 100 µM (inactive). The GI50 in the experiment on Malme-3M, in the experiment on NCI-H226, in the experiment on NCI-H23, with NCI-H460, with SF-268 and in the experiment on SK-MEL-28 was > 100 µM (inactive) each time. In addition, the GI50 with SK-OV-3, in the experiment with U-251, with UACC-62 and in the experiment on UO-31 was > 100 µM (inactive) in each case.
Turning to `CCCO[C@@H]1[C@@H](OC(C)=O)[C@@H](OC(C)=O)C(C)(C)/C=C/[C@H](C)C(=O)[C@@]2(OC(C)=O)C[C@@](C)(OC(C)=O)[C@H](OC(C)=O)[C@@H]2[C@H]2OC(=O)CC[C@@]12OC(=O)c1ccccc1`, the GI50 with ACHN is > 25 µM (inactive); with CAKI-1, 17.7 µM (inactive); with EKVX it was > 25 µM (inactive); in the experiment with HCT-116, 6.97 µM (inactive); with HCT-15, greater than 25 µM; with M14 it was > 25 µM (inactive). For the same molecule, the GI50 in the experiment on MOLT-4 is 5.13 µM (inactive); in the experiment on Malme-3M it was 17.5 µM (inactive); with NCI-H226 it was > 25 µM (inactive); with NCI-H23 it was > 25 µM (inactive); in the experiment with NCI-H460, 6.73 µM (inactive); in the experiment with OVCAR-4, > 25 µM (inactive). Moreover, the GI50 with OVCAR-8 is > 25 µM (inactive); in the experiment with SF-268, > 25 µM (inactive); in the experiment with SF-295 it was 10.4 µM (inactive); with SK-OV-3 it was > 25 µM (inactive); in the experiment with U-251 it was > 25 µM (inactive); in the experiment on UACC-62, > 25 µM (inactive). The GI50 in the experiment with UO-31 was > 25 µM (inactive).
In the case of `COC(=O)c1cc(C)ccc1CC(Cc1cccc(C)c1)C(=O)OC` (stereo unspecified), the GI50 was > 100 µM (inactive) in the experiment with ACHN; > 100 µM (inactive) in the experiment on CAKI-1; 59.2 µM (inactive) in the experiment with EKVX; 80.7 µM (inactive) in the experiment with HCT-116; greater than 100 µM with HCT-15; > 100 µM (inactive) in the experiment with M14. Moreover, the GI50 in the experiment on MOLT-4 is 23.4 µM (inactive); with Malme-3M, > 100 µM (inactive); with NCI-H226, > 100 µM (inactive); in the experiment on NCI-H23, 38.5 µM (inactive); in the experiment with NCI-H460, > 100 µM (inactive); in the experiment on OVCAR-4, > 100 µM (inactive). Moreover, the GI50 with OVCAR-8 was > 100 µM (inactive); in the experiment on SF-268, 13.6 µM (inactive); in the experiment on SF-295 it was > 100 µM (inactive); with SK-MEL-28 it was > 100 µM (inactive); in the experiment with SK-OV-3, 4.06 µM (inactive); in the experiment with U-251, > 100 µM (inactive). Further, in the experiment with UO-31, the GI50 is > 100 µM (inactive).
For `O=C1CSc2sc(=S)sc2S1`, the GI50 in the experiment on EKVX was > 100 µM (inactive); with HCT-116, > 100 µM (inactive); in the experiment with HCT-15, greater than 79.3 µM; with MOLT-4 it was > 100 µM (inactive); in the experiment on Malme-3M, > 100 µM (inactive); in the experiment with NCI-H226 it was > 100 µM (inactive). Moreover, the GI50 is > 100 µM (inactive) in the experiment with NCI-H23; > 100 µM (inactive) with NCI-H460; > 59.3 µM (inactive) in the experiment with OVCAR-4; > 100 µM (inactive) in the experiment on OVCAR-8; > 100 µM (inactive) in the experiment with SF-268; > 24.5 µM (inactive) with SF-295. The GI50 is > 100 µM (inactive) in the experiment with SK-MEL-28; > 75.3 µM (inactive) in the experiment with SK-OV-3; > 100 µM (inactive) in the experiment on U-251; > 100 µM (inactive) in the experiment on UACC-62; > 100 µM (inactive) in the experiment on UO-31.
As to `C=Cc1cc2c(cc1O)CC[C@@H]1[C@@H]2CC[C@]2(C)[C@@H](O)CC[C@@H]12`, the GI50 was 7.23 µM (inactive) with ACHN; 7.94 µM (inactive) in the experiment with CAKI-1; 7.38 µM (inactive) in the experiment on EKVX; 3.95 µM with HCT-15; 5.4 µM (inactive) in the experiment with M14; 3.9 µM (inactive) with MOLT-4. The GI50 was 2.18 µM (inactive) in the experiment with Malme-3M; 12.4 µM (inactive) in the experiment with NCI-H226; 3.18 µM (inactive) in the experiment on NCI-H23; 3.94 µM (inactive) in the experiment on NCI-H460; 11.2 µM (inactive) in the experiment on OVCAR-4; 4.16 µM (inactive) in the experiment with SF-268. In addition, the GI50 in the experiment on SF-295 was 3.82 µM (inactive); in the experiment with SK-MEL-28, 4.06 µM (inactive); in the experiment on SK-OV-3, 5.79 µM (inactive); in the experiment with U-251 it was 4.19 µM (inactive); in the experiment on UO-31 it was 7 µM (inactive).
